Reference: patent EP0840602B1, “USE OF A RETINOID FOR PREPARING AN ANTIBACTERIAL DRUG” (Pierre Fabre Dermo-Cosmetique, priority 1995, dated 1997)

Columns and labels:
St. aureus [1] = assay: Minimal bactericidal concentration (CMB), subculture of the microplate on trypticase soy agar; type: cell-based, Staphylococcus aureus; details: subculture 24-48 h at 32° C, second line of each compound in the table
Protocol: (§1) • Staphylococcus aureus 6538 P • Staphylococcus aureus de pathologies cutanées isolées de l'hôpital Rangueil Toulouse - (France)
(§2) • . Gélose Trypticase soja (Biomérieux)
(§3) Les solutions-mère des produits cités ci-dessous ont été préparées dans l'alcool puis dissoutes dans l'eau distillée stérile de façon à être en final à 200 µg/ml et environ 10° éthanolique (sous lumière jaune). • . Rétinal all Trans • . Rétinal 9 Cis (Sigma R 5754 - lot 62 H 84 43) • . Rétinal 13 Cis (Sigma R 6256 - lot 81 H 8440)
(§4) Le repiquage de la microplaque A sur une gélose trypticase soja préalablement coulée, permet après culture de 24-48 h à 32° C, la lecture de la concentration CMB = plus petite concentration ne permettant pas de croissance sur la gélose.

St. aureus [2] = assay: Minimal inhibitory concentration (CMI), broth microdilution in microplates; type: cell-based, Staphylococcus aureus; details: 10^6 germes par ml, 24 h at 32° C, first line of each compound in the table
Protocol: as §1
• . Bouillon Trypticase soja (Biomérieux)
as §3
(§5) Une distribution de 100 µl de bouillon Trypticase soja est réalisée dans chaque microcupule de la microplaque stérile (A).
(§6) Un témoin stérilité du milieu et un autre témoin de la vigueur de la souche sont réalisés en parallèle sur la microplaque.
(§7) L'ensemencement de la microplaque (A) a lieu sous la hotte après préparation de l'inoculum bactérien comme suit :
(§8) Les souches ayant été préalablement repiquées la veille sur gélose Trypticase soja, un inoculum 10^8 germes/ml est dispersé dans l'eau distillée stérile puis agité au vortex.
(§9) Les billes de verre assurant une bonne dispersion des souches, la mesure de la densité permet de préparer un inoculum adéquat par rapport à un étalonnage pré-établi et validé.
(§10) La répartition de la souche a lieu dans une deuxième microplaque (B) stérile par distribution de 100 µl d'inoculum par microcupule.
(§11) L'ensemencement a lieu par un repiquage de la microplaque (B) vers la microplaque (A), il se réalise ainsi une dilution au 1/100 de l'inoculum : la microplaque A contenant 10^6 germes par ml, peut être mise à l'étuve 24 h à 32° C.
(§12) La lecture de la plus grande dilution donnant lieu à une clarté identique au témoin stérilité du milieu, constitue la concentration minimale inhibitrice.

St. epidermis [3] = assay: as above; type: cell-based; details: 10^6 germes par ml, 24 h at 32° C, first line of each compound in the table
Protocol: as §3, §5, §6, §7, §8, §9, §10, §11, §12

St. epidermis [4] = assay: Minimal bactericidal concentration (CMB), subculture of the microplate on trypticase soy agar; type: cell-based; details: subculture 24-48 h at 32° C, second line of each compound in the table
Protocol: as §2, §3, §4

St. aureus 6538 P = assay: Bactericidal kinetics and D. value; type: cell-based, Staphylococcus aureus
Protocol: Le niveau d'efficacité, de l'ordre du microgramme, a été prouvé pour des souches de staphylocoques plurirésistantes notamment aux aminosides, tétracyclines et macrolides. L'efficacité bactéricide a pu être chiffrée. En effet, le rétinal à 0,1% a une D. value (temps nécessaire pour faire chuter la population du nombre de germes) sur Staphylococcus aureus 6538 P de 14,8 minutes avec un coefficient de corrélation de 0,999 en ce qui concerne la droite de régression linéaire reliant la population de germes au temps de contact germe-rétinaldéhyde.
La D. value du Rétinal à 0,1 % P/V dans une solution éthanolique à 20 % V/V a été recherchée sur St. aureus 6538 P.
La cinétique des prélèvements microbiens a été réalisée aux temps 15', 30', 60', 4h et 6h. L'inoculum de départ étant de 1,0.10^4 germes par ml, la neutralisation se réalise d'après les temps cités dans du Bouillon Trypticase Soja, supplémenté par 10 % de Tween 80. Le neutralisant a été validé au préalable.

[5] = system: adhésion des Gram positifs aux cornéocytes; assay: Adhesion of staphylococci to corneocytes according to Cole and Silverberg (1986); type: cell-based; details: doses infrabactériostatiques
Source text: Le rétinaldéhyde et ses isomères dont le 9 et le 13 cis-rétinaldéhyde possèdent une activité ciblée sur les Gram positifs, en particulier du genre Staphylococcus dont le staphylocoque doré. […] L'efficacité a pu être mise en évidence par le calcul des concentrations minimales inhibitrices et bactéricides sur des souches polyrésistantes issues de prélèvements cutanés isolés en milieu hospitalier et par études de l'adhésion du staphylocoque aux cornéocytes selon Cole et Silverber (1986).
• 1. Thabaut A. et Meyran M. (1989) Activité bactéricide comparée de quatorze antibiotiques sur staphylococcus aureus. Path. Biol. 37 : 321 - 328. • 2. Cole G.W.; Silvergerg N.L (1986) The adherence of staphylococcus aureus to human corneocytes. Arch. Dermatol. 122 : 166 - 169.

staphylococcus aureus = details: from reference 1 (Thabaut and Meyran 1989); cited from earlier work

Q: For `CC1=C(/C=C/C(C)=C/C=C/C(C)=C\C=O)C(C)(C)CCC1` [RETINAL 13 Cis, 13 cis-rétinaldéhyde], which CMB (St. aureus [1]) is on record?
A: 0,0025%

Q: What about the CMI (St. aureus [2]) of the same compound?
A: 0,0006%

Q: And the CMI (St. epidermis [3])?
A: 0,0001%

Q: And the CMB (St. epidermis [4])?
A: 0,0006%

Q: With `CC(C=CC=C(C)C=CC1=C(C)CCCC1(C)C)=CC=O` [Rétinal, rétinal] as the compound, how does the D. value (St. aureus 6538 P; Rétinal 0,1 % P/V in 20 % V/V ethanolic solution, St. aureus 6538 P, linear regression r = 0,99) read?
A: 14,8 mn

Q: And the “surviving germs, Temps 15” value (St. aureus 6538 P; Rétinal 0,1 % P/V in 20 % V/V ethanolic solution, contact 15', starting inoculum 1,0.10^4 germes par ml)?
A: 1,4.10^3

Q: And the “surviving germs, Temps 30” value (St. aureus 6538 P; Rétinal 0,1 % P/V in 20 % V/V ethanolic solution, contact 30', starting inoculum 1,0.10^4 germes par ml)?
A: 1,3.10^2

Q: What about the “surviving germs, Temps 60” value (St. aureus 6538 P; Rétinal 0,1 % P/V in 20 % V/V ethanolic solution, contact 60', starting inoculum 1,0.10^4 germes par ml) of the same compound?
A: 0

Q: What about the “surviving germs, Temps 4h” value (St. aureus 6538 P; Rétinal 0,1 % P/V in 20 % V/V ethanolic solution, contact 4h, starting inoculum 1,0.10^4 germes par ml) of the same compound?
A: 0

Q: What about the “surviving germs, Temps 6h” value (St. aureus 6538 P; Rétinal 0,1 % P/V in 20 % V/V ethanolic solution, contact 6h, starting inoculum 1,0.10^4 germes par ml) of the same compound?
A: 0

Q: What about the “Log, Temps 15” value (St. aureus 6538 P; log of surviving germs, Rétinal 0,1 %, contact 15') of the same compound?
A: 3,15

Q: What about the “Log, Temps 30” value (St. aureus 6538 P; log of surviving germs, Rétinal 0,1 %, contact 30') of the same compound?
A: 2,11

Q: What about the “D. value (temps nécessaire pour faire chuter la population du nombre de germes)” value (St. aureus 6538 P; rétinal à 0,1%, Staphylococcus aureus 6538 P, coefficient de corrélation 0,999) of the same compound?
A: 14,8 minutes

Q: And the “inhibition de l'adhésion des Gram positifs aux cornéocytes” value [5]?
A: activité inhibant d'adhésion des Gram positifs aux cornéocytes

Q: With `CC[C@H]1OC(=O)[C@H](C)[C@@H](O[C@H]2C[C@@](C)(OC)[C@@H](O)[C@H](C)O2)[C@H](C)[C@@H](O[C@@H]2O[C@H](C)C[C@H](N(C)C)[C@H]2O)[C@](C)(O)C[C@@H](C)C(=O)[C@H](C)[C@@H](O)[C@]1(C)O` [érythromycine] as the compound, how does the “temps pour faire chuter la population microbienne de 2 Log 10” value (staphylococcus aureus) read?
A: 48 heures

Q: Which CMB (St. aureus [1]) does the source give for `CC1=C(/C=C/C(C)=C/C=C/C(C)=C/C=O)C(C)(C)CCC1` [RETINALDEHYDE ALL TRANS, rétinaldéhyde tout trans] here?
A: 0,0012%

Q: And the CMI (St. aureus [2])?
A: 0,0003%

Q: What about the CMI (St. epidermis [3]) of the same compound?
A: 0,0001%

Q: What about the CMB (St. epidermis [4]) of the same compound?
A: 0,0003%

Q: What does the source list for `CC1=C(/C=C/C(C)=C\C=C\C(C)=C\C=O)C(C)(C)CCC1` [RETINAL 9 Cis, 9 cis-rétinaldéhyde]?
A: CMB (St. aureus [1]): 0,0025%; CMI (St. aureus [2]): 0,0003%; CMI (St. epidermis [3]): 0,0001%; CMB (St. epidermis [4]): 0,0006%
